Two molecules from US20260256780A1, “COMPOSITIONS FOR INDUCING RAS GTP HYDROLYSIS AND USES THEREOF” (Revolution Medicines, Inc., priority 2023, published 2026) can be followed below.

Molecules are shown by their SMILES.

Assay type in all cases: cell-based
The test system of experiment [1] is KRASG12D-mutant cell line AsPC-1. Nature of the experiment: Cell viability (CellTiter-Glo) and HSA synergy model, AsPC-1. On the procedure: (§1) Cell lines were seeded in complete growth media (RPMI-1640 or DMEM with 10% Fetal Bovine Serum and 1% Penicillin/Streptomycin) and allowed to adhere overnight in a 37° C. and 5% CO2 humidified incubator. The following day compounds were added at the indicate concentrations and incubated for a further 5 days. The number of viable cells in each well were assessed with Promega CellTiter-Glo® reagent according to manufacturer instructions. The cell viability was normalized to DMSO controls. The cell viability as a function of compound concentrations were plotted using GraphPad Prism analyzed using the Combenefit software package (Di Veroli G Y, Fornari C, Wang D, Mollard S, Bramhall J L, Richards F M, Jodrell D I. Combenefit: an interactive platform for the analysis and visualization of drug combinations. Bioinformatics. 2016 Sep. 15; 32(18):2866-8. doi: 10.1093/bioinformatics/btw230) to assess the synergy according to the highest single agent (HSA) synergy model (Borisy A A, Elliott P J, Hurst N W, Lee M S, Lehar J, Price E R, Serbedzija G, Zimmermann G R, Foley M A, Stockwell B R, Keith C T. Systematic discovery of multicomponent therapeutics. Proc Natl Acad Sci USA. 2003 Jun. 24; 100(13):7977-82. doi: 10.1073/pnas.1337088100)).
The KRASG12D-mutant cell line AsPC-1 was grown in RPMI-1640 supplemented with 10% fetal bovine serum and 1% penicillin/streptomycin. 2500 cells were seeded in 0.15 mL in the wells of a tissue culture-treated 96-well plate. After overnight incubation, compounds were added at the indicated concentration and incubated for a further 120 hours. Cell viability was assessed with Promega CellTiter Glo reagent, and the relative cell viability was plotted as a function of the concentration of (FIG. 4A and FIG. 4G) MRTX1133 or (FIG. 4D) MRTX-282 in combination with the indicated concentration to Compound A (FIG. 4A and FIG. 4D) or Compound D (FIG. 4G), both strong hydrolyzers. The synergy between (FIG. 4B and FIG. 4H) MRTX1133 or (FIG. 4E) MRTX-282 and Compound A (FIGS. 4B and 4E) or Compound D (FIG. 4H) was assessed by the HAS synergy model. Representative points of synergistic drug combination between (FIG. 4C and FIG. 4I) MRTX1133 or (FIG. 4F) MRTX-282 and Compound A (FIG. 4C and FIG. 4F) or Compound D (FIG. 4I) are highlighted.
The KRASG12D-mutant cell line AsPC-1 was grown in RPMI-1640 supplemented with 10% fetal bovine serum and 1% penicillin/streptomycin. 2000 cells were seeded in 0.15 mL in the wells of a tissue culture-treated 96-well plate. After overnight incubation, compounds were added at the indicated concentration and incubated for a further 120 hours. Cell viability was assessed with Promega CellTiter Glo reagent, and the relative cell viability was plotted as a function of the concentration of pan KRAS-IN-1 in combination with the indicated concentration to Compound D (FIG. 11A) or Compound C (FIG. 11D), both strong hydrolyzers. The synergy between pan KRAS-IN-1 and Compound D (FIG. 11B) or Compound C (FIG. 11E) was assessed by the HAS synergy model. Representative points of synergistic drug combination between pan KRAS-IN-1 and Compound D (FIG. 11C) or Compound C (FIG. 11F).
(In ATP-based viability assays light output follows the ATP content of the culture.)

The next experiment has as its target T1, KRAS^G12C (Homo sapiens, UniProt P01116, G12C).
T1 construct: endogenous in cells; host or cells: MiaPaCa2
Nature of the experiment: Covalent modification (cross-linking) of KRAS^G12C by sotorasib in MiaPaCa2 cells, immunoblot. Here is the method:
The KRASG12C-mutant cell line MiaPaCa2 was grown in DMEM supplemented with 10% fetal bovine serum and 1% penicillin/streptomycin. 2500 cells were seeded in 0.15 mL in the wells of a tissue culture-treated 96-well plate. After overnight incubation, compounds were added at the indicated concentration and incubated for a further 120 hours. […] The density of the KRAS^G12C and KRAS^G12C-Soto. gel bands can be quantified, plotted as a function of time, and fit to a single-phase exponential model to get the rate constant for KRAS^G12C target engagement.

Experiment [2] deals with KRASG12C-mutant cell line MiaPaCa2. Nature of the experiment: Cell viability (CellTiter-Glo) and HSA synergy model, MiaPaCa2. On the procedure:
as §1
The KRASG12C-mutant cell line MiaPaCa2 was grown in DMEM supplemented with 10% fetal bovine serum and 1% penicillin/streptomycin. […]

In experiment [3] the test system is KRASG12D-mutant cell line HPAC. The experiment is described as follows: Cell viability (CellTiter-Glo) and HSA synergy model, HPAC. On the procedure:
as §1
The KRASG12D-mutant cell line HPAC was grown in RPMI-16 40 supplemented with 10% fetal bovine serum and 1% penicillin/streptomycin. […]

Experiment [4] deals with KRASG12D-mutant cell line Gp2D. Nature of the experiment: Cell viability (CellTiter-Glo) and HSA synergy model, Gp2D. On the procedure:
as §1
The KRASG12D-mutant cell line Gp2D was grown in RPMI-16 40 supplemented with 10% fetal bovine serum and 1% penicillin/streptomycin. […]

Experiment [5] concerns KRASG12V-mutant cell line Capan-2. Nature of the experiment: Cell viability (CellTiter-Glo) and HSA synergy model, Capan-2. The following applies: in combination with pan KRAS-IN-1, 120 hours. Here is the method: as §1
The KRASG12V-mutant cell line Capan-2 was grown in RPMI-1640 supplemented with 10% fetal bovine serum and 1% penicillin/streptomycin. […]

For experiment [6], the system named is KRASG12R-mutant cell line PSN1. Nature of the experiment: Cell viability (CellTiter-Glo) and HSA synergy model, PSN1. To be noted: in combination with pan KRAS-IN-1, 120 hours. On the procedure:
as §1
The KRASG12R-mutant cell line PSN1 was grown in RPMI-1640 supplemented with 10% fetal bovine serum and 1% penicillin/streptomycin. […]

Experiment [7] concerns KRASG12C-mutant cell line H358. The experiment is described as follows: Cell viability (CellTiter-Glo) and HSA synergy model, H358. The following applies: in combination with pan KRAS-IN-1, 120 hours. Here is the method:
as §1
The KRASG12C-mutant cell line H358 was grown in RPMI-1640 supplemented with 10% fetal bovine serum and 1% penicillin/streptomycin. […]

Where [8] appears, read: in combination with MRTX1133, 120 hours.
[9] abbreviates: in combination with MRTX-282, 120 hours.

In the case of `CCn1c(-c2cccnc2[C@H](C)OC)c2c3cc(ccc31)[C@@H]1C[C@H]1CC[C@H](NC(=O)[C@H]1[C@H](C)[C@@H]1C)C(=O)N1CCC[C@H](N1)C(=O)OCC(C)(C)C2` (atropisomer, axis not shown) [compound 1], the “synergy on cell viability (HSA synergy model)” value (from here on “synergy on cell viability”) in experiment [1] (AsPC-1, in combination with MRTX1133, 120 hours) is reported as “synergistic”; in experiment [1] (AsPC-1, in combination with MRTX-282, 120 hours), “synergistic”; in experiment [2] (MiaPaCa2, in combination with AMG510, 120 hours), “synergistic”; in experiment [2] (MiaPaCa2, in combination with MRTX849, 120 hours), “synergistic”; in experiment [3] (setting [8]) it was “synergistic”; in experiment [3] (setting [9]) it was “synergistic”. In addition, the “synergy on cell viability” value in experiment [4] (setting [8]) and in experiment [4] (setting [9]) was “synergistic” in each case. The “cross-linking efficiency of sotorasib” value at KRAS^G12C (MiaPaCa2 cells, 1 μM sotorasib in combination with 1 μM or 10 μM Compound A vs sotorasib alone) is recorded as “increases in a concentration dependent manner”. Besides, on KRAS^G12C (MiaPaca-2 cells, sotorasib in combination with 1 or 10 μM of Compound A), the “amount of covalently-modified KRAS^G12C (KRAS^G12C-Soto.)” value was “increased at each time point”. The “rate of covalent engagement of KRAS^G12C (rate constant for target engagement)” value on KRAS^G12C (combination of sotorasib and compound A compared with sotorasib alone) is given as “more rapid”.
As for `CCn1c(-c2cc(N3CCN(C)CC3)cnc2[C@H](C)OC)c2c3cc(ccc31)CCCC[C@H](NC(=O)[C@H]1C[C@@H]1C)C(=O)N1CCC[C@H](N1)C(=O)OCC(C)(C)C2` (atropisomer, axis not shown) [compound 3], the “synergy on cell viability” value was “synergistic” in experiment [1] (AsPC-1, in combination with pan KRAS-IN-1, 120 hours); “synergistic” in experiment [5]; “synergistic” in experiment [6]; “synergistic” in experiment [7].
